Measurements: patent publication US8026276B2, “Parenteral CCI-779 formulations containing cosolvents, an antioxidant, and a surfactant” (Wyeth LLC, priority 2002, dated 2011)

Tests used:
Solubility of CCI-779 = assay type: physicochemical
Protocol: A primary obstacle towards the formulation of CCI-779 as a parenteral dosage form is the poor aqueous solubility, which is less than 1 μg/ml. The drug is a non-electrolyte and approaches such as pH adjustment and salt formation are not useful for improving the aqueous solubility. […] These include ethanol, propylene glycol, polyethylene glycol and dimethylacetamide. Two problems or limitations exist with respect to the formulation of CCI-779 in these organic solvents. First, chemical instability has been noted in virtually all solvents. The instability can be due to oxidative degradation of CCI-779 or to cleavage of a lactone bond, resulting in the formation of the ring opened seco-CCI-779. Second, formulations of CCI-779 in organic solvents will precipitate upon dilution with aqueous infusion solutions, such as 0.9% Sodium Chloride Injection or 5% Dextrose Injections, or with blood. This is a primary limitation to the use of water miscible organic solvents, also referred to as cosolvents, when used as vehicles for highly water-insoluble compounds.

[1] = Stability of CCI-779 in solution with chelating agent; assay type: physicochemical; settings: citric acid at less than 0.01% w/v
Description: In some embodiments, components with chelating activity are included in the formulations of the invention as the sole “antioxidant component”. Typically, such metal-binding components, when acting as chelating agents are used in the lower end of the range of concentrations for the antioxidant component provided herein. […] Additionally, such chelating agents may be used in combination with other antioxidants as part of the antioxidant component of the invention. For example, an acceptable formulation may contain both citric acid and d,l-α-tocopherol. Optimal concentrations for the selected antioxidant(s) can be readily determined by one of skill in the art, based upon the information provided herein.

human tumor xenografts = settings: nude mice; cited from earlier work
[2] = tested on: histologically diverse tumor cells; settings: cited from earlier work

For `CO[C@H]1C[C@@H]2CC[C@@H](C)[C@@](O)(O2)C(=O)C(=O)N2CCCC[C@H]2C(=O)O[C@H]([C@H](C)C[C@@H]2CC[C@@H](OC(=O)C(C)(CO)CO)[C@H](OC)C2)CC(=O)[C@H](C)/C=C(\C)[C@@H](O)[C@@H](OC)C(=O)[C@H](C)C[C@H](C)/C=C/C=C/C=C/1C` [CCI-779, rapamycin 42-ester with 3-hydroxy-2-(hydroxymethyl)-2-methylpropionic acid], the “solubility in water-miscible organic solvents” value (Solubility of CCI-779; ethanol, propylene glycol, polyethylene glycol, dimethylacetamide) was “soluble”, the “solubility in pharmaceutically acceptable vegetable oils” value (Solubility of CCI-779; vegetable oils) was “poor solubility” and the solubility (Solubility of CCI-779; water, read-out: aqueous solubility) was less than 1 µg/mL. For the same molecule, the “effect of citric acid on stability of CCI-779” value [1] was “enhanced the stability”, the “activity against human tumor xenografts” value (human tumor xenografts) was “has activity” and the “growth of tumor cells in vitro” value [2] was “inhibit the growth”.
